US12479834B2, “Phenol compound or salt thereof” (TAIHO PHARMACEUTICAL CO., LTD., priority 2019, dated 2025)

Columns and labels:
KRAS G12C mutant = biological target: T1, KRAS G12C mutant (Homo sapiens, UniProt P01116, G12C); test: Inhibition of SOS1-mediated nucleotide (GDP-GTP) exchange reaction of KRAS G12C mutant, BODIPY FL GDP fluorescence; assay type: biochemical; details: preincubated 25° C. 4 hours with 25 nM KRAS G12C bound with BODIPY FL GDP; SOS1 100 nM, GppNHp 1 μM, 30 minutes
T1 construct: 50 μM G12C K-Ras4B (1-169) protein and 1 mM BODIPY® FL GDP; His tag (N, cleaved yes); made in house; host or cells: E. coli BL21 (DE3)
Description: (§1) SOS1 protein was expressed in E. coli strain BL21 (DE3) by synthesizing a nucleotide sequence encoding the amino acid sequence represented by GenPept ID NP_005624 as a sequence optimized for E. coli by use of GeneArt Technology (Life Technologies Corp.) such that the protein was N-terminally His-tagged and fused with a TEV protease recognition sequence (ENLYFQG). The expressed His-tagged SOS1 (564-1049) was purified through a Ni column, then cleaved at its tag with N-terminally His-tagged TEV protease, and passed through a Ni column again to recover a flow-through fraction to obtain the protein.
Each compound was studied for its inhibitory effect on the exchange reaction of GDP into GppNHp in BODIPY® FL bound with the KRAS G12C mutant by fluorescence measurement using the G12C K-Ras4B (1-169) protein and the SOS1 protein.
For the preparation of the KRAS G12C mutant bound with BODIPY® FL GDP, first, 50 μM G12C K-Ras4B (1-169) protein and 1 mM BODIPY® FL GDP (Invitrogen Corp., G22360) were incubated for 1 hour in a buffer solution (20 mM Tris-HCl (pH 7.5), 50 mM NaCl, and 1 mM DTT) in ice in the presence of 2.5 mM EDTA. Then, MgCl2 was added thereto at a final concentration of 10 mM, then the mixture was incubated at room temperature for 30 minutes, and then, the protein was passed through a NAP-5 column for removal of free nucleotides and used for compound evaluation.
For the measurement of the inhibitory activity of compounds against nucleotide exchange reaction, first, the compound of the present invention was serially diluted with DMSO. Subsequently, the serially diluted solution of the compound of the present invention in DMSO (final concentration of DMSO: 5%) and the KRAS G12C mutant (25 nM) bound with BODIPY® FL GDP were added into a reaction buffer solution (20 mM Tris-HCl (pH 7.5), 100 mM NaCl, 1 mM MgCl2, 2 mM DTT, and 0.1% Tween 20), and the mixture was preincubated at 25° C. for 4 hours. Then, Son of Sevenless Homolog 1 (SOS1, amino acid region: 564-1049) and GppNHp (GMPPNP, Jena Bioscience GmbH, NU-401-50) were added thereto at final concentrations of 100 nM and 1 μM, respectively, and the mixture was reacted for 30 minutes. The change in fluorescence intensity of BODIPY® FL (excitation wavelength: 485 nm, fluorescence wavelength: 520 nm) between immediately after the start of reaction and after 30 minutes from the start of reaction was standardized, and then, the compound concentration at which 50% inhibition was achieved was calculated as IC50 (nM) when the signal value for only DMSO was defined as 0% inhibition and the signal value for no addition of GppNHp was defined as 100% inhibition.

G12C K-Ras4B (1-169) = biological target: T2, G12C K-Ras4B (1-169) (Homo sapiens, UniProt P01116, G12C); test: Binding to KRAS G12C mutant, compound binding rate by LC-MS; details: final compound concentration 2 μM, 1 μM protein, 2 hours at 25° C.
T2 construct: G12C K-Ras4B (1-169) protein, which was a KRAS G12C mutant; His tag (N, cleaved yes); made in house; host or cells: E. coli BL21 (DE3)
Description: as §1, with “K-Ras4B (1-169)” for “SOS1”, “NP_004976” for “NP_005624”, “K-Ras4B (1-169)” for “SOS1 (564-1049)”, “fraction, which was further purified by anion-exchange chromatography” for “fraction”, “protein. G12C K-Ras4B (1-169) protein, which was a KRAS G12C mutant, was obtained in the same way as in the K-Ras4B(1-169) protein except that glycine at position 12 of the amino acid sequence represented by GenPept ID NP_004976 was mutated to cysteine.” for “protein.”
The K-Ras4B (1-169) protein and the G12C K-Ras4B (1-169) protein were mixed and diluted with a buffer solution (1×TBS and 0.1 mM TCEP) to prepare a protein solution containing 1 μM each of the proteins. Each test compound was dissolved at 10 mM in DMSO and further diluted 10-fold with DMSO to make a 1 mM solution. Then, the solution was diluted 5-fold with DMSO to make a 200 μM solution. The 200 μM solution was further diluted 5-fold to make a […] solution. 1 μL of the 40 μM test compound was added to 19 μL of the 1 μM protein solution such that the final compound concentration was 2 μM. The mixture was stored for 2 hours in an incubator of 25° C., and the reaction was terminated by the addition of 80 μL of a 1×TBS solution containing 0.2% formic acid, followed by LC-MS measurement.
The LC-MS measurement was performed by using Xevo G2-S Q-Tof manufactured by Waters Corp., performing reverse-phase chromatography with a desalting column, and obtaining mass spectra of positive ions by electrospray. For the mass spectra, spectra of polyvalent ions were collectively converted to molecular weights by the MaxEnt technique using OpenLynx software, and then, a compound binding rate was obtained from the ratio of […].
The binding rates of test compounds having a final compound concentration of 2 μM for G12C K-Ras4B (1-169) are shown in the table below. The binding rate for G12C K-Ras4B (1-169) is rated “A” for 80% or more, “B” for 60% or more and less than 80%, “C” for 40% or more and less than 60%, “D” for 20% or more and less than 40%, and “E” for less than 20%.

Structure (SMILES) | IC50 (KRAS G12C mutant) | binding rate for G12C K-Ras4B (1-169) (G12C K-Ras4B (1-169))
C=CC(=O)N1CC(NC(=O)c2ccc(CNc3cc(C(F)(F)F)c(Cl)cc3O)o2)C1 [Example 50, N-(1-Acryloylazetidin-3-yl)-5-(((4-chloro-2-hydroxy-5-(trifluoromethyl)phenyl)amino)methyl)furan-2-carboxamide] | 3140 nM | D (20% or more and less than 40%)
C=CC(=O)N1CC(NC(=O)c2ccc(CNc3cc(C4CC4(F)F)c(Cl)cc3O)o2)C1 (stereo not drawn) [Example 51, N-(1-Acryloylazetidin-3-yl)-5-(((4-chloro-5-(2,2-difluorocyclopropyl)-2-hydroxyphenyl)amino)methyl)furan-2-carboxamide] | 763 nM | C (40% or more and less than 60%)
C=CC(=O)N1CC(NC(=O)c2ccc(CNc3cc(C4CC4)c(Cl)cc3O)o2)C1 [Example 52, N-(1-Acryloylazetidin-3-yl)-5-(((4-chloro-5-cyclopropyl-2-hydroxyphenyl)amino)methyl)furan-2-carboxamide] | 2090 nM | D (20% or more and less than 40%)
C=CC(=O)N1CC(NC(=O)c2ccc(CNc3cc(C4CCC4)c(Cl)cc3O)o2)C1 [Example 53, N-(1-Acryloylazetidin-3-yl)-5-(((4-chloro-5-cyclobutyl-2-hydroxyphenyl)amino)methyl)furan-2-carboxamide] | 5970 nM | E (less than 20%)
C=CC(=O)N1CC(NC(=O)c2cnc(CNc3cc(C(F)(F)F)c(Cl)cc3O)n2C)C1 [Example 54, N-(1-Acryloylazetidin-3-yl)-2-(((4-chloro-2-hydroxy-5-(trifluoromethyl)phenyl)amino)methyl)-1-methyl-1H-imidazole-5-carboxamide] | 420 nM | C (40% or more and less than 60%)
C=CC(=O)N1CC(NC(=O)c2cnc(CNc3cc(C4CC4(F)F)c(Cl)cc3O)n2C)C1 (stereo not drawn) [Example 55, N-(1-Acryloylazetidin-3-yl)-2-(((4-chloro-5-(2,2-difluorocyclopropyl)-2-hydroxyphenyl)amino)methyl)-1-methyl-1H-imidazole-5-carboxamide] | 122 nM | C (40% or more and less than 60%)
C=CC(=O)N1CC(NC(=O)c2cnc(CNc3cc(CC(F)(F)F)c(Cl)cc3O)n2C)C1 [Example 56, N-(1-Acryloylazetidin-3-yl)-2-(((4-chloro-2-hydroxy-5-(2,2,2-trifluoroethyl)phenyl)amino)methyl)-1-methyl-1H-imidazole-5-carboxamide] | 599 nM | E (less than 20%)
C=CC(=O)N1CC(NC(=O)c2cnc(CNc3cc(C(=C)C(F)(F)F)c(Cl)cc3O)n2C)C1 [Example 57, N-(1-Acryloylazetidin-3-yl)-2-(((4-chloro-2-hydroxy-5-(3,3,3-trifluoroprop-1-en-2-yl)phenyl)amino)methyl)-1-methyl-1H-imidazole-5-carboxamide] | 522 nM | D (20% or more and less than 40%)
C=CC(=O)N1CC(NC(=O)c2cnc(CNc3cc(S(F)(F)(F)(F)F)c(Cl)cc3O)n2C)C1 [Example 58, N-(1-Acryloylazetidin-3-yl)-2-(((4-chloro-2-hydroxy-5-(pentafluoro-λ6-sulfaneyl)phenyl)amino)methyl)-1-methyl-1H-imidazole-5-carboxamide] | 995 nM | D (20% or more and less than 40%)
C=CC(=O)N1CC(NC(=O)c2cnc(CNc3cc([Si](C)(C)C)c(Cl)cc3O)n2C)C1 [Example 62, N-(1-Acryloylazetidin-3-yl)-2-(((4-chloro-2-hydroxy-5-(trimethylsilyl)phenyl)amino)methyl)-1-methyl-1H-imidazole-5-carboxamide] | 11 nM | A (80% or more)

Next, values leading:

IC50 (KRAS G12C mutant) | binding rate for G12C K-Ras4B (1-169) (G12C K-Ras4B (1-169)) | Structure (SMILES)
140 nM | B (60% or more and less than 80%) | C=CC(=O)N1CC(NC(=O)c2cnc(CNc3cc(C(C)C(F)(F)F)c(Cl)cc3O)n2C)C1 (stereo not drawn) [Example 59, N-(1-Acryloylazetidin-3-yl)-2-(((4-chloro-2-hydroxy-5-(1,1,1-trifluoropropan-2-yl)phenyl)amino)methyl)-1-methyl-1H-imidazole-5-carboxamide]
37 nM | A (80% or more) | C=CC(=O)N1CC(NC(=O)c2cnc(CNc3cc(C(C)C)c(Cl)cc3O)n2C)C1 [Example 60, N-(1-Acryloylazetidin-3-yl)-2-(((4-chloro-2-hydroxy-5-isopropylphenyl)amino)methyl)-1-methyl-1H-imidazole-5-carboxamide]
144 nM | B (60% or more and less than 80%) | C=CC(=O)N1CC(NC(=O)c2cnc(CNc3cc(CC)c(Cl)cc3O)n2C)C1 [Example 61, N-(1-Acryloylazetidin-3-yl)-2-(((4-chloro-5-ethyl-2-hydroxyphenyl)amino)methyl)-1-methyl-1H-imidazole-5-carboxamide]
37 nM | A (80% or more) | C=CC(=O)N1CC(NC(=O)c2cnc(CNc3cc(C4(C)CC4(F)F)c(Cl)cc3O)n2C)C1 (stereo not drawn) [Example 63, N-(1-Acryloylazetidin-3-yl)-2-(((4-chloro-5-(2,2-difluoro-1-methylcyclopropyl)-2-hydroxyphenyl)amino)methyl)-1-methyl-1H-imidazole-5-carboxamide]
366 nM | D (20% or more and less than 40%) | C=CC(=O)N1CC(NC(=O)c2cnc(CNc3cc(CCC)c(Cl)cc3O)n2C)C1 [Example 64, N-(1-Acryloylazetidin-3-yl)-2-(((4-chloro-2-hydroxy-5-propylphenyl)amino)methyl)-1-methyl-1H-imidazole-5-carboxamide]
